Laboratory results reported in PMC11979273, “A phase I study to evaluate the safety, tolerability, and pharmacokinetics of HEC113995PA·H2O, a novel dual-acting serotonergic antidepressant, in healthy subjects” (Frontiers in Pharmacology, 2025).
Read-outs that look alike come from different tables or passages of the source.

What was measured:
[1] = Multiple ascending-dose (MAD) study, plasma pharmacokinetics; format: in vivo, human; details: for Cl/F / CLss/F / Css_max / Rac (AUC), accumulation ratio at steady state / Rac_Cmax, accumulation ratio at steady state / AUC(0-t) / Vd/F / Cmax / MRT inf / AUC / AUC(0-inf) / half-life / concentration at 10 day: mean (SD); for AUC(0-t) / Vd/F / Tmax / Tmax at 10 days / Cmax / MRT inf / AUC / AUC(0-inf) / half-life / concentration at 10 day: both sexes, human, plasma, oral; for MRT inf: read-out: MRT0-∞; for concentration at 10 day: read-out: Css_min
Method: Three drug doses (10, 20 and 40 mg) were utilized. A total of 36 healthy subjects of both genders were assigned randomly to the three groups (n = 12), with10 subjects taking HEC113995PA·H2O tablets and 2 taking placebo. The participants in the 10 mg dose group received a single dose daily in the morning after overnight fasting, or a single dose daily after a standard meal in the 20 mg and 40 mg dose groups for 10 consecutive days. Serial blood samples were collected within 0.5 h before drug administration on days 7, 8 and 9, and before and after drug administration on days 1 and 10 to determine plasma concentration and pharmacokinetic characteristics. Safety and tolerability were evaluated on days 4, 8, 13 and 15.
In the first dose group of single ascending-dose study, PK blood samples were collected at 0.5 h before administration and 0.5, 1, 1.5, 2, 2.5, 3, 4, 5, 6, 8, 10, 12, 24, 36, 48, and 72 h after administration. In other SAD groups, MAD groups and food effect study, PK blood samples were collected at 0.5 h before administration, and 1, 2, 3, 4, 5, 6, 7, 8, 10, 12, 24, 48, 72, 96, 120 and 144 h after administration. Approximately 4 mL of venous blood was obtained from each collection and placed in a vacuum collection vessel containing K2EDTA anticoagulant. The blood was centrifuged and packed according to the instruction provided by the Biological Sample Detection and Analysis Unit. Briefly, all samples were centrifuged at 4°C, 1,500 g for 10 min within 0.5 h after blood collection. After centrifugation, the plasma was aliquoted into two cryogenic storage tubes. The first tube (Tube A) contained at least 0.8 mL of plasma for analytical testing, and the remaining plasma is allocated into the backup tube (Tube B). The plasma samples were stored at −80°C within 1 h after aliquoting for further analysis.
The concentration of HEC113995PA·H2O in human plasma samples (K2EDTA) was quantitatively analyzed using the LC-MS/MS method. Plasma samples (50 μL) were processed using protein precipitation with 5 μL deuterated internal standard (HEC124659) and 100 μL acetonitrile. The Shimadzu LCMS-8060 system coupled with a GL Sciences Inc. InertSustain AQ-C18 HP column (50 × 2.1 mm, 3 μm) achieved chromatographic separation through gradient elution using 0.04% TFA aqueous solution (pH 2.1) and acetonitrile at 0.4 mL/min. ESI-positive mode detection employed optimized parameters: 300°C interface temperature, 250°C DL temperature, 3 L/min nebulizer gas, and 400°C heating block temperature.
Using WinNonlin 7.0 for non-compartmental analysis (NCA), pharmacokinetic (PK) parameters were meticulously calculated based on the actual sampling times for plasma, urine, and fecal samples from each subject post-administration. These parameters encompassed a comprehensive range, including the area under the concentration–time curve (AUC), AUC from time zero (pre-dose) to the time of the last measurable concentration (AUC0-t), and AUC from time zero (pre-dose) to infinity (AUC0-∞). Additionally, maximum observed plasma concentration (Cmax), time to achieve maximum plasma concentration (Tmax), terminal elimination half-life (t1/2), elimination rate constant (Ke), apparent volume of distribution (Vd/F), clearance rate (CL/F), and mean residence time (MRT) were also determined. The AUC0-t and AUC0-∞ values were computed using the linear trapezoidal rule method. Tmax and Cmax were ascertained based on the actual observed data. In the context of the multiple ascending-dose study, both the degree of fluctuation (DF) and the accumulation ratio at steady state (Rac) were thoroughly analyzed.

5-HT1A receptor = target: T1, 5-HT1A receptor (Homo sapiens, UniProt P08908); test: 5-HT1A receptor agonism (EC50, EMAX); format: biochemical; details: in vitro; unpublished data
T1 sequence (P08908 1-422): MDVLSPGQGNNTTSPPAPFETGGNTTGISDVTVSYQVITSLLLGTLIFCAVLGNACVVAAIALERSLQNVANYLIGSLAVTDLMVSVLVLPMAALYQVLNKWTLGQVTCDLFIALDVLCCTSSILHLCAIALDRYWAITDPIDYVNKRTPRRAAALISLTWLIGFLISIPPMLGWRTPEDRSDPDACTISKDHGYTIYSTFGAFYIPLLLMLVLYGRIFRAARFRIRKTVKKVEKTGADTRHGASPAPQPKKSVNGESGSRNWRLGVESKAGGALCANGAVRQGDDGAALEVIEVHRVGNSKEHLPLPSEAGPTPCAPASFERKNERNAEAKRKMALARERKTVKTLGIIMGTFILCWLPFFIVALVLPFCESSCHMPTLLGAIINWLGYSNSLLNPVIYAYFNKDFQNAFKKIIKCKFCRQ

[2] = MAD 10 mg (N = 10), D1, fasting
[3] = MAD 20 mg (N = 9), D1, after standard meal
[4] = MAD 20 mg (N = 9), D10, QD after standard meal
[5] = MAD 40 mg (N = 10), D1, after standard meal
[6] = MAD 40 mg (N = 10), D10, QD after standard meal

Cc1nc(-c2cnc(N3CCN(CCCc4c[nH]c5ccc(C#N)cc45)CC3)nc2)sc1C(N)=O [HEC113995PA·H2O]
gender difference in systemic exposure ([1]; 10 mg on an empty stomach, low sample size): no significant gender difference
accumulation ratio ([1]; 40 mg dose as printed in discussion): 2.4 fold
continuous administration until PK steady state ([1]; 10 to 40 mg daily): 7 days
accumulation ratios (Rac), range ([1]; 10–40 mg range, discussion): 1.83–2.41
gender difference in systemic exposure ([1]; 20 and 40 mg following a standard meal, single and multiple administrations): no apparent gender difference
Cl/F [1, 2]: 9.4 L/h
Cl/F [1, 3]: 8.1 L/h
CLss/F [1, 4]: 7.27 (0.97) L/h
Css_max [1, 4]: 202.6 (39.27) ng/mL
Rac (AUC), accumulation ratio at steady state [1, 4]: 1.83 (0.16)
Rac_Cmax, accumulation ratio at steady state [1, 4]: 1.96 (0.28)
Cl/F [1, 5]: 8.8 L/h
CLss/F [1, 6]: 7.25 (1.4) L/h
Css_max [1, 6]: 435.6 (87.5) ng/mL
Rac (AUC), accumulation ratio at steady state [1, 6]: 1.96 (0.35)
Rac_Cmax, accumulation ratio at steady state [1, 6]: 2.1 (0.4)
accumulation ratio Rac_Cmax, arithmetic mean range ([1]; after multiple administrations, 10, 20, 40 mg groups): 1.9546–2.4058
AUC(0-t) ([1]; 10 mg, MAD 10 mg (N = 10), D1, fasting, read-out: AUC0-t): 483 ng·h/mL
AUC(0-t) ([1]; 10 mg, MAD 10 mg (N = 10), D1, fasting, read-out: AUC0–24h): 486 ng·h/mL
Vd/F ([1]; 10 mg, MAD 10 mg (N = 10), D1, fasting, read-out: Vz/F): 350 L
Tmax ([1]; 10 mg, MAD 10 mg (N = 10), D1, fasting, median (min, max), read-out: Tmax): 5.5 h
Vd/F ([1]; 10 mg, MAD D10, 10 mg dose group, read-out: Vss/F): 521 L
Tmax at 10 days ([1]; 10 mg, MAD D10, 10 mg dose group, median (min, max)): 4.5 h
AUC(0-t) ([1]; 20 mg, MAD 20 mg (N = 9), D1, after standard meal, read-out: AUC0-t): 1520 ng·h/mL
AUC(0-t) ([1]; 20 mg, MAD 20 mg (N = 9), D1, after standard meal, read-out: AUC0–24h): 1530 ng·h/mL
Vd/F ([1]; 20 mg, MAD 20 mg (N = 9), D1, after standard meal, read-out: Vz/F): 189 L
Tmax ([1]; 20 mg, MAD 20 mg (N = 9), D1, after standard meal, median (min, max), read-out: Tmax): 5 h
Vd/F ([1]; 20 mg, MAD 20 mg (N = 9), D10, QD after standard meal, read-out: Vss/F): 402 L
Tmax at 10 days ([1]; 20 mg, MAD 20 mg (N = 9), D10, QD after standard meal, median (min, max)): 2 h
AUC(0-t) ([1]; 40 mg, MAD 40 mg (N = 10), D1, after standard meal, read-out: AUC0-t): 2920 ng·h/mL
AUC(0-t) ([1]; 40 mg, MAD 40 mg (N = 10), D1, after standard meal, read-out: AUC0–24h): 2930 ng·h/mL
Vd/F ([1]; 40 mg, MAD 40 mg (N = 10), D1, after standard meal, read-out: Vz/F): 192 L
Tmax ([1]; 40 mg, MAD 40 mg (N = 10), D1, after standard meal, median (min, max), read-out: Tmax): 5 h
Vd/F ([1]; 40 mg, MAD 40 mg (N = 10), D10, QD after standard meal, read-out: Vss/F): 321 L
Tmax at 10 days ([1]; 40 mg, MAD 40 mg (N = 10), D10, QD after standard meal, median (min, max)): 2.5 h
Tmax ([1]; 40 mg, following a single administration, 10, 20, 40 mg groups, read-out: median time to peak concentration (Tmax), range): 5 to 5.5 h
Cmax [1, 2]: 30.6 ng/mL
MRT inf [1, 2]: 40 h
Cmax [1, 3]: 104 ng/mL
MRT inf [1, 3]: 25.3 h
AUC [1, 4]: 2790 ng·h/mL
AUC(0-inf) [1, 4]: 5470 ng·h/mL
half-life [1, 4]: 38.6 h
concentration at 10 day [1, 4]: 66.8 ng/mL
Cmax [1, 5]: 208 ng/mL
MRT inf [1, 5]: 24.3 h
AUC [1, 6]: 5730 ng·h/mL
AUC(0-inf) [1, 6]: 10500 ng·h/mL
half-life [1, 6]: 30.9 h
concentration at 10 day [1, 6]: 132 ng/mL
half-life ([1]; MAD D10, 10 mg dose group): 39.1 h
concentration at 10 day ([1]; MAD D10, 10 mg dose group): 30 ng/mL
AUC(0-inf) ([1]; MAD D10, head prints 20 mg (N = 9)): 2490 ng·h/mL
5-HT1A receptor activity relative to Vortioxetine (5-HT1A receptor): comparable activity
activity in agonizing 5-HT1A receptor relative to HEC61139 (Vilazodone) (5-HT1A receptor): slightly weaker activity
